# Results as given in US7772241B2, “Variolin derivatives and their use as antitumor agents” (Pharma Mar S.A., priority 2001, dated 2010).
# Read-outs that look alike come from different tables or passages of the source.
# Key:
# HeLa = assay: Inhibition of cells growth by colorimetric (SRB) assay, HeLa; conditions: for GI50: Homo sapiens, HeLa, 48 h, read-out: HELA GI50, SRB assay, 48 hours exposure; for HELA TGI: SRB assay, 48 hours exposure
# From the text: (§1) The finality of these assays is to interrupt the growth of a “in vitro” tumor cell culture by means a continued exhibition of the cells to the sample to be testing.
# (§2) This form of the assay employs 96 well cell culture microplates of 9 mm diameter (Faircloth, 1988; Mosmann, 1983). Most of the cell lines are obtained from American Type Culture Collection (ATCC) derived from different human cancer types.
# (§3) Cells are maintained in RPMI 1640 10% FBS, supplemented with 0.1 g/l penicillin and 0.1 g/l streptomycin sulphate and then incubated at 37° C., 5% CO2 and 98% humidity. For the experiments, cells were harvested from subconfluent cultures using trypsin and resuspended in fresh medium before plating.
# (§4) Cells are seeded in 96 well microtiter plates, at 5×10^3 cells per well in aliquots of 195 μl medium, and they are allowed to attach to the plate surface by growing in drug free medium for 18 hours. Afterward, samples are added in aliquots of 5 μl in a ranging from 10 to 10^−8 μg/ml, dissolved in DMSO/EtOH/PBS (0.5:0.5:99). After 48 hours exposure, the antitumor effect are measured by the SRB methodology: cells are fixed by adding 50 μl of cold 50% (wt/vol) trichloroacetic acid (TCA) and incubating for 60 minutes at 4° C. Plates are washed with deionized water and dried. One hundred μl of SRB solution (0.4% wt/vol in 1% acetic acid) is added to each microtiter well and incubated for 10 minutes at room temperature. Unbound SRB is removed by washing with 1% acetic acid. Plates are air dried and bound stain is solubilized with Tris buffer. Optical densities are read on a automated spectrophotometric plate reader at a single wavelength of 490 nm.
# (§5) The values for mean +/−SD of data from triplicate wells are calculated. Some parameters for cellular responses can be calculated: GI=growth inhibition, TGI=total growth inhibition (cytostatic effect) and LC=cell killing (cytotoxic effect).
# SK-MEL-28 = assay: Inhibition of cells growth by colorimetric (SRB) assay, SK-MEL-28; conditions: for GI50 / CC50: Homo sapiens, SK-MEL-28, 48 h; for GI50: read-out: MEL-28 GI50, SRB assay, 48 hours exposure; for MEL-28 TGI: SRB assay, 48 hours exposure
# Outline: (§6)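 Human tumour cells in RPMI 1640 with 10% FBS were seeded at 5×10^3 cells/well, allowed to attach for 18 h, then exposed to samples at 10 to 10^−8 μg/ml for 48 h. Growth was measured by SRB staining after TCA fixation, with absorbance read at 490 nm in triplicate wells.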
# PANC-1 = assay: Inhibition of cells growth by colorimetric (SRB) assay, PANC-1; conditions: for GI50 / CC50: Homo sapiens, PANC-1, 48 h; for GI50: read-out: PANC-1 GI50, SRB assay, 48 hours exposure; for PANC-1 TGI: SRB assay, 48 hours exposure
# Outline: as §6
# LoVo-Dox = assay: Inhibition of cells growth by colorimetric (SRB) assay, LoVo-Dox; conditions: for GI50 / CC50: Homo sapiens, 48 h; for GI50: read-out: LOVO-DOX GI50, SRB assay, 48 hours exposure; for LOVO-DOX TGI: SRB assay, 48 hours exposure
# Outline: as §6
# IGROV-1 = assay: Inhibition of cells growth by colorimetric (SRB) assay, IGROV-1; conditions: for GI50 / CC50: Homo sapiens, IGROV-1, 48 h; for GI50: read-out: IGROV GI50, SRB assay, 48 hours exposure; for IGROV TGI: SRB assay, 48 hours exposure
# Outline: as §6
# LNCaP = assay: Inhibition of cells growth by colorimetric (SRB) assay, LNCaP; conditions: for GI50 / CC50: Homo sapiens, LNCaP, 48 h; for GI50: read-out: LN-caP GI50, SRB assay, 48 hours exposure; for LN-caP TGI: SRB assay, 48 hours exposure
# Outline: as §6
# K-562 = assay: Inhibition of cells growth by colorimetric (SRB) assay, K-562; conditions: for GI50 / CC50: Homo sapiens, K562, 48 h; for GI50: read-out: K-562 GI50, SRB assay, 48 hours exposure; for K-562 TGI: SRB assay, 48 hours exposure
# Outline: as §6
# A-549 = assay: Inhibition of cells growth by colorimetric (SRB) assay, A-549; conditions: for GI50 / CC50: Homo sapiens, A549, 48 h; for GI50: read-out: A-549 GI50, SRB assay, 48 hours exposure; for A-549 TGI: SRB assay, 48 hours exposure
# Outline: as §6
# SK-BR-3 = assay: Inhibition of cells growth by colorimetric (SRB) assay, SK-BR-3; conditions: for GI50 / CC50: Homo sapiens, SK-BR-3, 48 h; for GI50: read-out: SK-BR-3 GI50, SRB assay, 48 hours exposure; for SK-BR-3 TGI: SRB assay, 48 hours exposure
# Outline: as §6
# HeLa-APL = assay: Inhibition of cells growth by colorimetric (SRB) assay, HeLa-APL; conditions: for GI50 / CC50: Homo sapiens, 48 h; for HELA-APL TGI: SRB assay, 48 hours exposure
# From the text: as §1, §2, §3, §4, §5
# HT-29 = assay: Inhibition of cells growth by colorimetric (SRB) assay, HT-29; conditions: for GI50 / CC50: Homo sapiens, HT-29, 48 h; for GI50: read-out: HT-29 GI50, SRB assay, 48 hours exposure; for HT-29 TGI: SRB assay, 48 hours exposure
# Outline: as §6
# DU-145 = assay: Inhibition of cells growth by colorimetric (SRB) assay, DU-145; conditions: for GI50 / CC50: Homo sapiens, DU-145, 48 h; for GI50: read-out: DU-145 GI50, SRB assay, 48 hours exposure; for DU-145 TGI: SRB assay, 48 hours exposure
# Outline: as §6
# IGROV-ET = assay: Inhibition of cells growth by colorimetric (SRB) assay, IGROV-ET; conditions: for GI50 / CC50: Homo sapiens, 48 h; for GI50: read-out: IGROV-ET GI50, SRB assay, 48 hours exposure; for IGROV-ET TGI: SRB assay, 48 hours exposure
# Outline: as §6
# LoVo = assay: Inhibition of cells growth by colorimetric (SRB) assay, LoVo; conditions: for GI50 / CC50: Homo sapiens, LoVo, 48 h; for GI50: read-out: LOVO GI50, SRB assay, 48 hours exposure; for LOVO TGI: SRB assay, 48 hours exposure
# Outline: as §6
compound,measurement,setting,value
Cl.Nc1nccc(-c2c3c(O)ccnc3n3c(N)nccc23)n1 [Compound 54],GI50,HeLa,57.3 nM
same,HELA TGI,HeLa,1.17E−07
same,GI50,SK-MEL-28,945 nM
same,CC50,SK-MEL-28; read-out: MEL-28 LC50,11400 nM
same,MEL-28 TGI,SK-MEL-28,3.22E−06
same,GI50,PANC-1,871 nM
same,CC50,PANC-1; read-out: PANC-1 LC50,27300 nM
same,PANC-1 TGI,PANC-1,3.28E−06
same,GI50,LoVo-Dox,155 nM
same,CC50,LoVo-Dox; read-out: LOVO-DOX LC50,27300 nM
same,LOVO-DOX TGI,LoVo-Dox,7.32E−07
same,GI50,IGROV-1,440 nM
same,CC50,IGROV-1; read-out: IGROV LC50,27300 nM
same,IGROV TGI,IGROV-1,1.37E−06
same,GI50,LNCaP,287 nM
same,CC50,LNCaP; read-out: LN-caP LC50,1820 nM
same,LN-caP TGI,LNCaP,7.24E−07
same,GI50,K-562,1670 nM
same,CC50,K-562; read-out: K-562 LC50,27300 nM
same,K-562 TGI,K-562,1.44E−05
same,GI50,A-549,339 nM
same,CC50,A-549; read-out: A-549 LC50,27300 nM
same,A-549 TGI,A-549,1.10E−06
same,GI50,SK-BR-3,530 nM
same,CC50,SK-BR-3; read-out: SK-BR-3 LC50,2670 nM
same,SK-BR-3 TGI,SK-BR-3,1.19E−06
same,GI50,HeLa-APL; read-out: HELA-APL GI50,61.2 nM
same,CC50,HeLa-APL; read-out: HELA-APL LC50,270 nM
same,HELA-APL TGI,HeLa-APL,1.28E−07
same,GI50,HT-29,1690 nM
same,CC50,HT-29; read-out: HT-29 LC50,27300 nM
same,HT-29 TGI,HT-29,8.71E−06
same,GI50,DU-145,360 nM
same,CC50,DU-145; read-out: DU-145 LC50,27300 nM
same,DU-145 TGI,DU-145,1.32E−06
same,GI50,IGROV-ET,421 nM
same,CC50,IGROV-ET; read-out: IGROV-ET LC50,27300 nM
same,IGROV-ET TGI,IGROV-ET,1.48E−06
same,GI50,LoVo,266 nM
same,CC50,LoVo; read-out: LOVO LC50,27300 nM
same,LOVO TGI,LoVo,1.04E−06
CSc1nccc(-c2c3cccnc3n3c(N)nccc23)n1.Cl [Compound 68],GI50,HeLa,10 nM
same,HELA TGI,HeLa,3.19E−08
same,GI50,SK-MEL-28,1080 nM
same,CC50,"SK-MEL-28; read-out: MEL-28 LC50, SRB assay, 48 hours exposure",14400 nM
same,MEL-28 TGI,SK-MEL-28,4.49E−06
same,GI50,PANC-1,588 nM
same,CC50,"PANC-1; read-out: PANC-1 LC50, SRB assay, 48 hours exposure",29000 nM
same,PANC-1 TGI,PANC-1,1.15E−05
same,GI50,LoVo-Dox,1150 nM
same,CC50,"LoVo-Dox; read-out: LOVO-DOX LC50, SRB assay, 48 hours exposure",29000 nM
same,LOVO-DOX TGI,LoVo-Dox,2.43E−06
same,GI50,IGROV-1,1720 nM
same,CC50,"IGROV-1; read-out: IGROV LC50, SRB assay, 48 hours exposure",29000 nM
same,IGROV TGI,IGROV-1,1.27E−05
same,GI50,LNCaP,310 nM
same,CC50,"LNCaP; read-out: LN-caP LC50, SRB assay, 48 hours exposure",4410 nM
same,LN-caP TGI,LNCaP,1.05E−06
same,GI50,K-562,2510 nM
same,CC50,"K-562; read-out: K-562 LC50, SRB assay, 48 hours exposure",29000 nM
same,K-562 TGI,K-562,1.84E−05
same,GI50,A-549,1290 nM
same,CC50,"A-549; read-out: A-549 LC50, SRB assay, 48 hours exposure",29000 nM
same,A-549 TGI,A-549,5.10E−06
same,GI50,SK-BR-3,641 nM
same,CC50,"SK-BR-3; read-out: SK-BR-3 LC50, SRB assay, 48 hours exposure",16100 nM
same,SK-BR-3 TGI,SK-BR-3,3.42E−06
same,GI50,"HeLa-APL; read-out: HELA-APL GI50, SRB assay, 48 hours exposure",10.3 nM
same,CC50,"HeLa-APL; read-out: HELA-APL LC50, SRB assay, 48 hours exposure",655 nM
same,HELA-APL TGI,HeLa-APL,5.68E−08
same,GI50,HT-29,1140 nM
same,CC50,"HT-29; read-out: HT-29 LC50, SRB assay, 48 hours exposure",29000 nM
same,HT-29 TGI,HT-29,6.93E−06
same,GI50,DU-145,365 nM
same,CC50,"DU-145; read-out: DU-145 LC50, SRB assay, 48 hours exposure",2900 nM
same,DU-145 TGI,DU-145,1.03E−06
same,GI50,IGROV-ET,2820 nM
same,CC50,"IGROV-ET; read-out: IGROV-ET LC50, SRB assay, 48 hours exposure",29000 nM
same,IGROV-ET TGI,IGROV-ET,1.44E−05
same,GI50,LoVo,539 nM
same,CC50,"LoVo; read-out: LOVO LC50, SRB assay, 48 hours exposure",2590 nM
same,LOVO TGI,LoVo,1.18E−06
